Results published in patent publication US20180203014A1, “COMPOSITIONS FOR DETECTING CIRCULATING INTEGRIN BETA-3 BIOMARKER AND METHODS FOR DETECTING CANCERS AND ASSESSING TUMOR PRESENCE OR PROGRESSION, CANCER DRUG RESISTANCE AND TUMOR STEMNESS” (The Regents of the University of California, priority 2015, published 2018).
“Also recorded” adds a separate entry of the source.

Key:
FG and FG-β3 cells = assay: Tumor sphere formation assay (Example 1); format: cell-based, human; conditions: for effect of αvβ3 expression on drug resistance (tumor sphere formation): FG lacking β3 vs FG-β3, in vitro
Protocol: (§1) Tumor spheres formation assays were performed essentially as described previously^17. […] Colonies were stained with crystal violet and scored with an Olympus SZH10 microscope. Survival curves were generated at least with five concentration points.

[1] = system: panel of human carcinoma cell lines; assay: Tumorsphere assay (Example 2); format: cell-based; conditions: for impact of integrin β3 expression on resistance: β3-negative vs β3-positive cells; for tumorsphere formation in vitro, combination with erlotinib: β3-positive cells (FG-β3, PANC-1, A549), erlotinib 0.5 μM with lenalidomide 1-2 μM or bortezomib 4 nM
Protocol: Tumorsphere assay was performed as previously described (10). […] The media was replaced with fresh inhibitor 2/6 times a week. Survival curves were generated at least with five concentration points.

[2] = system: β3-positive and β3-negative tumor cells (FG, PANC-1); assay: Self renewal tumorsphere assay and soft agar assay, 3D (Example 3); format: cell-based, human; conditions: β3 ectopic expression (FG) or knockdown (PANC-1)
Protocol: Tumorsphere assay was performed as previously described. Soft agar formation assays were performed essentially as described previously. […] The media was replaced with fresh inhibitor 2/5 times a week. Survival curves were generated at least with five concentration points. […] Cells were treated with a dose response of gemcitabine, cisplatin, erlotinib, lapatinib and linsitinib. […] Tumor volumes are expressed as mean±SEM. *P<0.05. […] Results are expressed as % tumor weight compared to vehicle control. *P<0.05. […] Data are mean±SE; **P<0.001. […] Scale bar, 50 μm.

[3] = system: β3-positive cells (FG-β3, MDA-MB231, FG-R); assay: Anchorage independent growth in soft agar, NFkB inhibitors with erlotinib (FIG. 31); format: cell-based, human; conditions: Lenalidomide 2 μM, PS-1145 1 μM, 10 to 15 days; for response of colonies / tumorsphere formation to single agent: β3-positive cells (intrinsic or acquired resistant), each agent alone: erlotinib 0.5 μM; for tumorsphere formation, combination with erlotinib: β3-positive cells, in combination with erlotinib 0.5 μM
Excerpt: Then, the soft agar were stained with crystal violet and the colonies were counted manually.

[4] = system: subcutaneous A549 xenografts; assay: Subcutaneous A549 xenografts, integrin β3 knockdown; format: in vivo, mice; conditions: A549 shCTRL vs sh β3, erlotinib 25 mg/kg/day, 16 days
Excerpt: (A) Immunoblots showing integrin β3 knockdown efficiency in cells used in FIG. 1. […] Tumor volumes are expressed as mean±SEM. n=8 mice per group. (C) Immunoblots showing expression of indicated proteins of representative tumors. […] (E) Effect of integrin β3 expression on lapatinib, OSI-906, cisplatin and gemcitabine n=3; mean±SEM. (F) Viability assay (CellTiter-Glo assay) of FG and FG-β3 cells grown in suspension in media with or without serum. n=2; mean+SEM. *P<0.05. **P<0.01.
(a) Effect of integrin β3 expression (ectopic expression for FG and integrin β3-specific knockdown for PANC-1) cells on drug treatment response. Cells were treated with a dose response of gemcitabine, cisplatin, erlotinib, lapatinib and linsitinib. […] Tumor volumes are expressed as mean±SEM. *P<0.05. […] Results are expressed as % tumor weight compared to vehicle control. *P<0.05. […] (f) Relative mRNA expression of integrin β3 (ITGB3) in HCC827 vehicle-treated tumors (n=5) or erlotinib-treated tumors (n=7) from (e) after acquired resistance. Data are mean±SE; **P<0.001. […] Scale bar, 50 μm. […] The HCC827 erlotinib-treated tumors have been digested and sorted in two groups: the integrin β3− and the integrin β3+ population.

integrin αvβ3 (CD61) = assay: Flow cytometry of αvβ3 after prolonged EGFR TKI exposure in vitro; format: cell-based, human; conditions: FG, Miapaca-2 and other erlotinib sensitive lines, weeks of treatment
Protocol: Human pancreatic (FG, PANC-1, Miapaca-2 (MP2), CFPAC-1, XPA-1, CAPAN-1, BxPc3), breast (MDAMB231, MDAMB468 (MDA468), BT20, SKBR3, BT474), colon (SW480) and lung (A549, H441) cancer cell lines were grown in ATCC recommended media supplemented with 10% fetal bovine serum, glutamine and non-essential amino acids. We obtained FG-β3, FG-D119A mutant and PANC-shβ3 cells as previously described^17. […] Cisplatin was generated from Sigma-Aldrich. Lenalidomide was purchased from LC Laboratories.
200,000 cells, after drug or vehicle treatment, were washed with PBS and incubated for 20 minutes with the Live/Dead reagent (Invitrogen) according to the manufacturer's instruction, then, cells were fixed with 4% paraformaldehyde for 15 min and blocked for 30 min with 2% BSA in PBS. Cells were stained with fluorescent-conjugated antibodies to CD61 (LM609), CD44 (eBioscience), CD24 (eBioscience), CD34 (eBioscience), CD133 (Santa Cruz), CD56 (eBioscience), CD29 (P4C10) and CD49f (eBioscience). All antibodies were used at 1:100 dilutions, 30 minutes at 4° C. After washing several times with PBS, cells were analyzed by FACS.

[5] = system: orthotopic FG pancreatic tumors; assay: Orthotopic pancreas cancer xenograft model; format: in vivo, mice
Protocol: All mouse experiments were carried out in accordance with approved protocols from the UCSD animal subjects committee and with the guidelines set forth in the NIH Guide for the Care and Use of Laboratory Animals. Tumors were generated by injection of FG human pancreatic carcinoma cells (10^6 tumor cells in 30 μL of sterile PBS) into the tail of the pancreas of 6-8 week old male immune compromised nu/nu mice.
Tumors were generated as previously described (JAY).

[6] = system: stage IV non-small cell lung cancer; assay: Serial biopsies from NSCLC patients on erlotinib therapy; format: in vivo, human
Protocol: All biopsies are from lung or pleural effusion. […] This work was approved by the UCSD Institutional Review Board (IRB).
Immunostaining was performed according to the manufacturer's recommendations (Vector Labs) on […] sections of paraffin-embedded tumors from tumor biopsies from lung cancer patients. Tumor sections were processed as previously described (23) using integrin β3 (Abcam clone EP2417Y). Sections stained with integrin β3 were scored by a H-score according to the staining intensity (SI) on a scale 0 to 3 within the whole tissue section.

HCC827 xenograft tumors = HCC827 xenograft tumors treated until acquired resistance; format: in vivo, mice; conditions: erlotinib 12.5 mg/kg/day until acquired resistance
Excerpt: Tumor volumes are expressed as mean±SEM. *P<0.05. […] Results are expressed as % tumor weight compared to vehicle control. *P<0.05. […] Data are mean±SE; **P<0.001. […] Scale bar, 50 μm.

[7] = system: HCC827 human lung cancer cells; assay: Circulating tumor cells from orthotopic HCC827 lung tumors (FIG. 30); format: in vivo, mice; conditions: orthotopic HCC827, 3 months at 25 mg/kg/day
Excerpt: FIG. 30 illustrates data showing integrin β3 (CD61) is a RTKI (Receptor Tyrosine Kinase (RTK) Inhibitor) drug resistance biomarker on the surface of circulating tumor cells; as discussed in detail in Example 2, below.

[8] = system: H441 human lung adenocarcinoma orthotopic tumors; assay: Orthotopic lung cancer xenograft model; format: in vivo, mice
Protocol: FG pancreatic carcinoma cells (1×10^6 tumor cells in 30 μl of PBS) were injected into the pancreas of 6- to 8-week-old male nude mice as previously described (10). Tumors were established for 2-3 weeks (tumor sizes were monitored by ultrasound) before beginning dosing. […] H441 lung adenocarcinoma cells were generated as previously described (21). […] FG pancreatic carcinoma cells (1×10^6 tumor cells in 30 μl of PBS) were injected into the pancreas of 6- to 8-week-old male nude mice as previously described (10). Tumors were established for 2-3 weeks (tumor sizes were monitored by ultrasound) before beginning dosing. […] H441 lung adenocarcinoma cells were generated as previously described (21). […] Tumors were measured every 2-3 days with calipers until they were harvested at day 10,16 or after acquired resistance.

PANC-1 cells = assay: Tumor sphere formation assay, knockdown of αvβ3 (Example 1); format: cell-based, human
Protocol: as §1, with “previously^17. Briefly, cells were seeded at 1000 to 2000 cells per well and grown for 12 days to 3 weeks.” for “previously^17.”

[9] = system: phosphorylated TBK1 and NF-κB; assay: Immunoblot analysis of RalB effectors in cells grown in suspension and treated with erlotinib; format: cell-based, human; conditions: αvβ3 negative cells, erlotinib 0.5 μM
Protocol: Cells were lysed in either RIPA lysis buffer (50 mM Tris pH 7.4, 100 mM NaCL, 2 mM EDTA, 10% DOC, 10% Triton, 0.1% SDS) or Triton lysis buffer (50 mM Tris pH 7.5, 150 mN NaCl, 1 mM EDTA, 5 mM MgCl2, 10% Glycerol, 1% Triton) supplemented with complete protease and phosphatase inhibitor mixtures (Roche) and centrifuged at 13,000 g for 10 min at 4° C. Protein concentration was determined by BCA assay. 500 μg to 1 mg of protein were immunoprecipitated with 3 μg of anti-integrin αvβ-3 (LM609) overnight at 4° C. following by capture with 25 μl of protein A/G (Pierce). Beads were washed five times, eluted in Laemmli buffer, resolved on NuPAGE 4-12% Bis-Tris Gel (Invitrogen) and immunoblotting was performed with anti-integrin β3 (Santa Cruz), anti-RalB (Cell Signaling Technology), anti KRAS (Santa Cruz). For immunoblot analysis, 25 of protein was boiled in Laemmli buffer and resolved on 8% to 15% gel. […]

[10] = system: subcutaneous β3-positive tumors (FG-β3, FG-R); assay: Subcutaneous β3-positive tumors in mice; conditions: for tumor growth, monotherapy: lenalidomide 25 mg/kg/day or bortezomib 0.25 mg/kg alone; for tumor growth in vivo, combination with erlotinib: with erlotinib 25 mg/kg/day, lenalidomide 25 mg/kg/day (FG-β3) or bortezomib 0.25 mg/kg (FG-R)
Protocol: FG pancreatic carcinoma cells (1×10^6 tumor cells in 30 μl of PBS) were injected into the pancreas of 6- to 8-week-old male nude mice as previously described (10). Tumors were established for 2-3 weeks (tumor sizes were monitored by ultrasound) before beginning dosing. […] FG pancreatic carcinoma cells (1×10^6 tumor cells in 30 μl of PBS) were injected into the pancreas of 6- to 8-week-old male nude mice as previously described (10). Tumors were established for 2-3 weeks (tumor sizes were monitored by ultrasound) before beginning dosing. […] Tumors were measured every 2-3 days with calipers until they were harvested at day 10,16 or after acquired resistance.
Tumor dimensions are reported as the fold change relative to size of the same tumor on Day 1. Mean±SEM, (A) *P=0.042 using a one way ANOVA test. n=6 mice per group. […] Tumor dimensions are reported as the fold change relative to size of the same tumor on Day 1. *P=0.0134 using a one way ANOVA test. n=8 mice per group.

[11] = systemic erlotinib treatment for 7-8 weeks

With Nc1ccn([C@@H]2O[C@H](CO)[C@@H](O)C2(F)F)c(=O)n1 [gemcitabine] the “effect of αvβ3 expression on drug resistance (tumor sphere formation)” value (shortened to “effect of αvβ3 expression”) (FG and FG-β3 cells) was “failed to protect cells”, the “impact of integrin β3 expression on resistance” value [1] was “did not impact resistance” and the “effect of β3 expression on drug response, cells growing in 3D” value (from here on “effect of β3 expression on drug response”) [2] was “did not impact the response”.
For O=C(Nc1cc(Cl)cc2c1[nH]c1cnccc12)c1cccnc1 [PS-1145], the “response of colonies / tumorsphere formation to single agent” value [3] was “resistant” and the “tumorsphere formation, combination with erlotinib” value [3] was “decreased tumorsphere formation”.
With C#Cc1cccc(Nc2ncnc3cc(OCCOC)c(OCCOC)cc23)c1 [erlotinib, N-(3-ethynylphenyl)-6,7-bis(2-methoxyethoxy) quinazolin-4-amine] the “erlotinib resistance after knockdown of integrin β3” value [4] was “overcame erlotinib resistance”, the “integrin αvβ3 / β3 expression after prolonged erlotinib exposure in vitro” value (integrin αvβ3 (CD61)) was “the greater the expression level of αvβ3; also recorded: induction of β3 expression” and the “response of colonies / tumorsphere formation to single agent” value [3] was “resistant”. The “erlotinib resistance of orthotopic pancreatic tumors with ectopic β3 expression” value ([5]; FG vs FG-β3 orthotopic tumors, systemic treatment) was “dramatically increased erlotinib resistance; also recorded: conferred erlotinib resistance”, the “increase in αvβ3 expression” value ([5]; orthotopic FG pancreatic tumors, four weeks of erlotinib treatment) was 10 fold and the “EGFR phosphorylation in tumor lysates (immunoblot)” value ([5]; orthotopic FG tumors after 10 days of erlotinib) was “suppressed EGFR phosphorylation”. For the same compound, the “erlotinib resistance, ligation competent vs incompetent integrin αvβ3” value (FG and FG-β3 cells; FG cells transfected with WT β3 or D119A mutant) was “same degree of erlotinib resistance”, the “effect of αvβ3 expression” value (FG and FG-β3 cells) was “dramatically increased erlotinib resistance” and the “disease progression after days of erlotinib therapy” value (shortened to “disease progression after days”) ([6]; Patient 1) was 920 days. For the same compound, the “disease progression after days” value ([6]; Patient 2) was 92 days, the “disease progression after days” value ([6]; Patient 3) was 120 days and the initial response ([6]; all 3 patients) was “partial response”. The “integrin β3 expression in biopsies after vs before erlotinib resistance” value ([6]; paired lung tumor biopsies, immunohistochemistry) was “qualitative increase in integrin β3 expression; also recorded: qualitatively higher”, the “integrin β3 expression in erlotinib resistant vs vehicle-treated tumors” value (HCC827 xenograft tumors) was “significantly higher” and the erlotinib response ([1]; H1650 cells, wildtype KRAS and mutant EGFR) was “resistant”. The erlotinib response ([1]; tumor cell lines with oncogenic KRAS: FG, H441, and CAPAN1) was “sensitive”, the “αvβ3 (CD61) status of human lung cancer cells detected in the circulation” value [7] was “positive for αvβ3” and the time until moribund ([8]; erlotinib 100 mg/kg/day by oral gavage, start 3 weeks after tumor cell injection) was roughly 58 days. The development of resistance [8, 11] was “developed resistance”, the “integrin αvβ3 expression compared with vehicle-treated tumors” value [8, 11] was “qualitative increase in integrin αvβ3 expression” and the “increase in tumor cell sensitivity to erlotinib after knockdown of αvβ3” value (PANC-1 cells) was 10 fold. The “levels / activation of phosphorylated TBK1 and NF-κB” value [9] was “reduced; also recorded: decreased the activation” and the “effect of β3 expression on drug response” value [2] was “reduced sensitivity”.
With CC(C)C[C@H](NC(=O)[C@H](Cc1ccccc1)NC(=O)c1cnccn1)B(O)O [bortezomib] the “tumor growth, monotherapy” value [10] was “failed to impact tumor growth”, the “tumor growth in vivo, combination with erlotinib” value [10] was “completely suppressed tumor growth” and the “tumorsphere formation in vitro, combination with erlotinib” value [1] was “decreased tumorsphere formation”.
CS(=O)(=O)CCNCc1ccc(-c2ccc3ncnc(Nc4ccc(OCc5cccc(F)c5)c(Cl)c4)c3c2)o1 [lapatinib] was tested, and the “effect of β3 expression on drug response” value [2] was “reduced sensitivity”.
In the case of Nc1cccc2c1CN(C1CCC(=O)NC1=O)C2=O (racemic) [lenalidomide, (RS)-3-(4-amino-1-oxo-3H-isoindol-2-yl)piperidine-2,6-dione], the “tumor growth, monotherapy” value [10] is reported as “failed to impact tumor growth”, the “tumor growth in vivo, combination with erlotinib” value [10] is reported as “completely suppressed tumor growth” and the “response of colonies / tumorsphere formation to single agent” value [3] is reported as “resistant”. The “tumorsphere formation, combination with erlotinib” value [3] was “decreased tumorsphere formation” and the “tumorsphere formation in vitro, combination with erlotinib” value [1] was “decreased tumorsphere formation”.
For C[C@]1(O)C[C@@H](c2nc(-c3ccc4ccc(-c5ccccc5)nc4c3)c3c(N)nccn32)C1 [OSI-906], the “effect of αvβ3 expression” value (FG and FG-β3 cells) was “induced resistance” and the “effect of β3 expression on drug response” value [2] was “reduced sensitivity”.
For N.N.[Cl][Pt][Cl] [cisplatin], the “effect of αvβ3 expression” value (FG and FG-β3 cells) was “failed to protect cells”, the “impact of integrin β3 expression on resistance” value [1] was “did not impact resistance” and the “effect of β3 expression on drug response” value [2] was “did not impact the response”.
